Earlier results, collected in US20120071554A1, “DEUTERATED 2-PROPYLPENTANOIC ACID COMPOUNDS” (priority 2008, published 2012).

## CCCC(CCC)C(=O)O [Valproate, sodium hydrogen bis(2-propylpentanoate)]
Adult patients on monotherapy
  administered dose excreted in the urine as the glucuronide conjugate: 30-50%
  dose excreted as products of other oxidative mechanisms: 15-20%
  dose excreted as the products of mitochondrial beta-oxidation: over 40%
In vivo
  dose excreted unchanged in the urine: Less than 3%
Pediatric patients co-dosed with valproate and aspirin, inhibition of beta-oxidation pathway
  increase of the valproate free-fraction: 4 fold
